Reference: US4508663A, “Process for preparing thiosulfenamide derivatives of N-phosphonomethylglycinonitriles” (Monsanto Company, priority 1983, dated 1985)

What was measured:
Assay in all cases: post-emergence herbicidal activity, greenhouse
Type in all cases: in vivo
Quackgrass = settings: Table I
Summary of the method: (§1)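 Plants grown from seed or perennial propagules in greenhouse soil pans were sprayed at two to three weeks with compound solution or suspension containing about 0.4% emulsifier, at the stated application rates. Injury relative to untreated controls was scored at approximately two and four weeks after treatment on a post-emergence activity index.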

Sugar Beet = settings: Table II, 4 WAT
Summary of the method: as §1

Lambsquarters = test system: Lambsquarters
Summary of the method: as §1

Yellow Nutsedge = settings: Table I
Summary of the method: as §1

Wheat = settings: Table II, 4 WAT
Summary of the method: as §1

Rice = settings: Table II, 4 WAT
Summary of the method: as §1

Barnyardgrass = test system: Barnyardgrass
Summary of the method: as §1

Smartweed = test system: Smartweed
Summary of the method: as §1

Canada Thistle = settings: Table I
Summary of the method: as §1

Velvetleaf = test system: Velvetleaf
Summary of the method: as §1

Hemp Sesbania = settings: Table II, 4 WAT
Summary of the method: as §1

Morningglory = test system: Morningglory
Summary of the method: as §1

Cocklebur = test system: Cocklebur
Summary of the method: as §1

Panicum Spp = settings: Table II, 4 WAT
Summary of the method: as §1

Wild Buckwheat = settings: Table II, 4 WAT
Summary of the method: as §1

Downy Brome = test system: Downy Brome
Summary of the method: as §1

Sorghum = settings: Table II, 4 WAT
Summary of the method: as §1

Crabgrass = settings: Table II, 4 WAT
Summary of the method: as §1

Johnsongrass = settings: Table I
Summary of the method: as §1

Soybean = settings: Table II, 4 WAT
Summary of the method: as §1

SMILES: N#CCN(CP(=O)(Oc1ccccc1)Oc1ccccc1)SSc1cccc(C(F)(F)F)c1 [IV, Phosphonic acid, [[(cyanomethyl)[[3-(trifluoromethyl)phenyl]dithio]amino]methyl]-, diphenyl ester]
- post-emergence herbicidal activity index (Quackgrass; 2 WAT, 5.6 kg/h): 1 (25-49% control)
- post-emergence herbicidal activity index (Quackgrass; 2 WAT, 11.2 kg/h): 0 (0-24% control)
- post-emergence herbicidal activity index (Quackgrass; 4 WAT, 5.6 kg/h): 2 (50-74% control)
- post-emergence herbicidal activity index (Quackgrass; 4 WAT, 11.2 kg/h): 0 (0-24% control)
- post-emergence herbicidal activity index (Sugar Beet; 1.12 kg/h): 0 (0-24% control)
- post-emergence herbicidal activity index (Sugar Beet; 5.6 kg/h): 0 (0-24% control)
- post-emergence herbicidal activity index (Lambsquarters; Table I, 2 WAT, 5.6 kg/h): 3 (75-99% control)
- post-emergence herbicidal activity index (Lambsquarters; Table I, 2 WAT, 11.2 kg/h): 3 (75-99% control)
- post-emergence herbicidal activity index (Lambsquarters; Table I, 4 WAT, 5.6 kg/h): 3 (75-99% control)
- post-emergence herbicidal activity index (Lambsquarters; Table I, 4 WAT, 11.2 kg/h): 4 (100% control)
- post-emergence herbicidal activity index (Lambsquarters; Table II, 4 WAT, 1.12 kg/h): 2 (50-74% control)
- post-emergence herbicidal activity index (Lambsquarters; Table II, 4 WAT, 5.6 kg/h): 4 (100% control)
- post-emergence herbicidal activity index (Yellow Nutsedge; 2 WAT, 5.6 kg/h): 1 (25-49% control)
- post-emergence herbicidal activity index (Yellow Nutsedge; 2 WAT, 11.2 kg/h): 1 (25-49% control)
- post-emergence herbicidal activity index (Yellow Nutsedge; 4 WAT, 5.6 kg/h): 2 (50-74% control)
- post-emergence herbicidal activity index (Yellow Nutsedge; 4 WAT, 11.2 kg/h): 2 (50-74% control)
- post-emergence herbicidal activity index (Wheat; 1.12 kg/h): 0 (0-24% control)
- post-emergence herbicidal activity index (Wheat; 5.6 kg/h): 1 (25-49% control)
- post-emergence herbicidal activity index (Rice; 1.12 kg/h): 0 (0-24% control)
- post-emergence herbicidal activity index (Rice; 5.6 kg/h): 2 (50-74% control)
- post-emergence herbicidal activity index (Barnyardgrass; Table I, 2 WAT, 5.6 kg/h): 2 (50-74% control)
- post-emergence herbicidal activity index (Barnyardgrass; Table I, 2 WAT, 11.2 kg/h): 2 (50-74% control)
- post-emergence herbicidal activity index (Barnyardgrass; Table I, 4 WAT, 5.6 kg/h): 2 (50-74% control)
- post-emergence herbicidal activity index (Barnyardgrass; Table I, 4 WAT, 11.2 kg/h): 2 (50-74% control)
- post-emergence herbicidal activity index (Barnyardgrass; Table II, 4 WAT, 1.12 kg/h): 0 (0-24% control)
- post-emergence herbicidal activity index (Barnyardgrass; Table II, 4 WAT, 5.6 kg/h): 3 (75-99% control)
- post-emergence herbicidal activity index (Smartweed; Table I, 2 WAT, 5.6 kg/h): 0 (0-24% control)
- post-emergence herbicidal activity index (Smartweed; Table I, 2 WAT, 11.2 kg/h): 1 (25-49% control)
- post-emergence herbicidal activity index (Smartweed; Table I, 4 WAT, 5.6 kg/h): 0 (0-24% control)
- post-emergence herbicidal activity index (Smartweed; Table I, 4 WAT, 11.2 kg/h): 4 (100% control)
- post-emergence herbicidal activity index (Smartweed; Table II, 4 WAT, 1.12 kg/h): 1 (25-49% control)
- post-emergence herbicidal activity index (Smartweed; Table II, 4 WAT, 5.6 kg/h): 2 (50-74% control)
- post-emergence herbicidal activity index (Canada Thistle; 2 WAT, 5.6 kg/h): 1 (25-49% control)
- post-emergence herbicidal activity index (Canada Thistle; 2 WAT, 11.2 kg/h): 1 (25-49% control)
- post-emergence herbicidal activity index (Canada Thistle; 4 WAT, 5.6 kg/h): 2 (50-74% control)
- post-emergence herbicidal activity index (Canada Thistle; 4 WAT, 11.2 kg/h): 1 (25-49% control)
- post-emergence herbicidal activity index (Velvetleaf; Table I, 2 WAT, 5.6 kg/h): 0 (0-24% control)
- post-emergence herbicidal activity index (Velvetleaf; Table I, 2 WAT, 11.2 kg/h): 0 (0-24% control)
- post-emergence herbicidal activity index (Velvetleaf; Table I, 4 WAT, 5.6 kg/h): 1 (25-49% control)
- post-emergence herbicidal activity index (Velvetleaf; Table I, 4 WAT, 11.2 kg/h): 1 (25-49% control)
- post-emergence herbicidal activity index (Velvetleaf; Table II, 4 WAT, 1.12 kg/h): 0 (0-24% control)
- post-emergence herbicidal activity index (Velvetleaf; Table II, 4 WAT, 5.6 kg/h): 1 (25-49% control)
- post-emergence herbicidal activity index (Hemp Sesbania; 1.12 kg/h): 0 (0-24% control)
- post-emergence herbicidal activity index (Hemp Sesbania; 5.6 kg/h): 1 (25-49% control)
- post-emergence herbicidal activity index (Morningglory; Table I, 2 WAT, 5.6 kg/h): 1 (25-49% control)
- post-emergence herbicidal activity index (Morningglory; Table I, 2 WAT, 11.2 kg/h): 1 (25-49% control)
- post-emergence herbicidal activity index (Morningglory; Table I, 4 WAT, 5.6 kg/h): 3 (75-99% control)
- post-emergence herbicidal activity index (Morningglory; Table I, 4 WAT, 11.2 kg/h): 2 (50-74% control)
- post-emergence herbicidal activity index (Morningglory; Table II, 4 WAT, 1.12 kg/h): 1 (25-49% control)
- post-emergence herbicidal activity index (Morningglory; Table II, 4 WAT, 5.6 kg/h): 2 (50-74% control)
- post-emergence herbicidal activity index (Cocklebur; Table I, 2 WAT, 5.6 kg/h): 1 (25-49% control)
- post-emergence herbicidal activity index (Cocklebur; Table I, 2 WAT, 11.2 kg/h): 2 (50-74% control)
- post-emergence herbicidal activity index (Cocklebur; Table I, 4 WAT, 5.6 kg/h): 2 (50-74% control)
- post-emergence herbicidal activity index (Cocklebur; Table I, 4 WAT, 11.2 kg/h): 2 (50-74% control)
- post-emergence herbicidal activity index (Cocklebur; Table II, 4 WAT, 1.12 kg/h): 1 (25-49% control)
- post-emergence herbicidal activity index (Cocklebur; Table II, 4 WAT, 5.6 kg/h): 3 (75-99% control)
- post-emergence herbicidal activity index (Panicum Spp; 1.12 kg/h): 0 (0-24% control)
- post-emergence herbicidal activity index (Panicum Spp; 5.6 kg/h): 2 (50-74% control)
- post-emergence herbicidal activity index (Wild Buckwheat; 1.12 kg/h): 0 (0-24% control)
- post-emergence herbicidal activity index (Wild Buckwheat; 5.6 kg/h): 2 (50-74% control)
- post-emergence herbicidal activity index (Downy Brome; Table I, 2 WAT, 5.6 kg/h): 1 (25-49% control)
- post-emergence herbicidal activity index (Downy Brome; Table I, 2 WAT, 11.2 kg/h): 0 (0-24% control)
- post-emergence herbicidal activity index (Downy Brome; Table I, 4 WAT, 5.6 kg/h): 1 (25-49% control)
- post-emergence herbicidal activity index (Downy Brome; Table I, 4 WAT, 11.2 kg/h): 2 (50-74% control)
- post-emergence herbicidal activity index (Downy Brome; Table II, 4 WAT, 1.12 kg/h): 0 (0-24% control)
- post-emergence herbicidal activity index (Downy Brome; Table II, 4 WAT, 5.6 kg/h): 1 (25-49% control)
- post-emergence herbicidal activity index (Sorghum; 1.12 kg/h): 2 (50-74% control)
- post-emergence herbicidal activity index (Sorghum; 5.6 kg/h): 3 (75-99% control)
- post-emergence herbicidal activity index (Crabgrass; 1.12 kg/h): 3 (75-99% control)
- post-emergence herbicidal activity index (Crabgrass; 5.6 kg/h): 3 (75-99% control)
- post-emergence herbicidal activity index (Johnsongrass; 2 WAT, 5.6 kg/h): 2 (50-74% control)
- post-emergence herbicidal activity index (Johnsongrass; 2 WAT, 11.2 kg/h): 1 (25-49% control)
- post-emergence herbicidal activity index (Johnsongrass; 4 WAT, 5.6 kg/h): 3 (75-99% control)
- post-emergence herbicidal activity index (Johnsongrass; 4 WAT, 11.2 kg/h): 1 (25-49% control)
- post-emergence herbicidal activity index (Soybean; 1.12 kg/h): 1 (25-49% control)
- post-emergence herbicidal activity index (Soybean; 5.6 kg/h): 1 (25-49% control)
